TGI and GI50 data for 28 compounds are collected here from PubChem BioAssay (NCI).

SMILES strings stand for the structures. “And” between values parts separate entries of the source, which are not always exact repeats. Identical values can stand only once.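 Each compound was tested at five concentrations against cells in 96-well plates for 48 hours. GI50 = concentration required for 50% inhibition of growth. The concentration for full growth arrest is given as TGI.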 Bounds are passed on as bounds.

Holding throughout (test): NCI tumour cell line growth inhibition, 48 h
Assay [1] relates to A498 renal.
Assay [2] concerns IGROV1 ovarian.
Assay [3] concerns NCI-H23 lung.
The subject of assay [4] is NCI-H460 lung.
Assay [5] relates to OVCAR-5 ovarian.
The subject of assay [6] is RXF 393 renal.
Assay [7] concerns SK-MEL-2 melanoma.
The subject of assay [8] is HCT-116 colon.
Assay [9] deals with HS 578T breast.
For assay [10], the system named is NCI/ADR-RES ovarian.

For `COc1ccc(C(=O)Nc2ccc(S(=O)(=O)NCC(=O)O)cc2)cc1`, the TGI in [1], in assay [2], in assay [3], in assay [4], in [5] and in [6] was more than 100 µM each time. In addition, the TGI in assay [7] was more than 100 µM.
For `C=CC1(c2ccccc2Cl)N/C(=C/OCC)CO1` (stereo unspecified), the TGI in assay [1], in assay [8], in assay [2], in assay [3], in assay [4] and in assay [5] was more than 100 µM each time. In addition, the TGI in [6] and in assay [7] was more than 100 µM throughout.
Consider `N.N.N.N.N.N#N.[Cl-].[Os+7]`, for which the GI50 in assay [8], in assay [2], in [3], in assay [4], in [5] and in assay [6] was more than 100 µM in each case. For the same compound, the GI50 in assay [7] is more than 100 µM. Besides, the TGI in [8], in assay [2], in assay [3], in assay [4], in [5] and in assay [6] was more than 100 µM each time. In [7], this compound registered a TGI of more than 100 µM.
On to `O=C(c1ccccn1)c1nc(-c2ccc(Cl)c(Cl)c2)nc2ccc(Cl)cc12`, for which the TGI was more than 100 µM in [1]; 33.4 µM in assay [8]; more than 100 µM in assay [2]; 87.5 µM in [3]; more than 100 µM in assay [4]; more than 100 µM in [5]. Further, the TGI was 46.8 µM in assay [6] and more than 100 µM in assay [7].
`O=C1OCC2=C1C(c1cccc(C(F)(F)F)c1)c1cc3c(cc1N2CCO)OCO3` (stereo unspecified): the GI50 in assay [1] is 1.08 µM; in assay [8] it was 0.408 µM; in [9] it was 3.01 µM; in assay [2], 1.61 µM; in assay [3], 2.72 µM; in assay [4], 1.54 µM. For the same compound, the results for the GI50 in [10], in assay [5] and in assay [7] were 1.34 µM, 2.19 µM and 1.43 µM, respectively. Also, the TGI was 10.9 µM in [1]; more than 50 µM in assay [8]; more than 50 µM in [9]; more than 50 µM in assay [2]; more than 50 µM in assay [3]; more than 50 µM in [4]. For the same compound, the TGI in assay [10], in [5] and in [7] was more than 50 µM in each case.
For the compound `O=C(O)c1c([N+](=O)[O-])cc(C(F)(F)F)cc1[N+](=O)[O-]`, the TGI in [1], in assay [8], in [2], in assay [3], in assay [4] and in [5] was more than 100 µM each time. The TGI in assay [6] and in assay [7] was more than 100 µM throughout.
For the compound `C/C=C/C(=O)[C@@H](O)C(C)C`, the TGI in assay [8], in assay [2], in [3], in assay [5], in [6] and in assay [7] was more than 100 µM in each case.
Regarding `CN1C(=O)N(C)C2C1NN=c1s/c(=C\c3c[nH]c4ccccc34)c(=O)n12` (stereo unspecified), the GI50 in [1] was 0.0688 µM; in assay [8], 0.0371 µM; in [9], 0.0342 µM; in assay [2] it was 0.0654 µM; in assay [3], 0.0479 µM; in assay [4], 0.0397 µM. Further, the GI50 in assay [10] is 0.034 µM; in assay [5] it was 0.0731 µM; in assay [7], 34.6 µM. For the same compound, the TGI is 0.602 µM in assay [1]; more than 100 µM in assay [8]; more than 90.9 µM in [9]; more than 100 µM in assay [2]; more than 100 µM in assay [3]; more than 100 µM in assay [4]. In addition, the TGI in assay [5] and in assay [7] was more than 100 µM each time.
For `Cc1cc2c(=O)cc(-c3ccc(C(F)(F)F)cc3)oc2c(C(=O)O)c1C`, the TGI in assay [8], in assay [2], in [3], in [4], in [5] and in [6] was more than 100 µM throughout. The compound also had a TGI in [7] of more than 100 µM.
On to `CN(C)CCNC(=O)c1cccc2ccc(-c3cccnc3)nc12`, for which the TGI in assay [1] was 8.22 µM; in [8], 13.1 µM; in [2] it was 25.6 µM; in assay [3], 16.1 µM; in assay [4], more than 100 µM; in assay [5], 22.4 µM. Also, the TGI in assay [6] stood at 19.5 µM; in assay [7], 21.4 µM.
With `O=C(N[C@@H]1C=CCC[C@@H]1c1ccccc1)OCc1ccccc1`, the TGI in assay [1] came to 39 µM; in assay [8], 34.6 µM; in [2] it was 68.9 µM; in [3], 51.3 µM; in [4] it was 34.7 µM; in assay [5] it was 54.4 µM. The values for the TGI in [6] and in assay [7] were 35.9 µM and 32.4 µM, respectively.
On to `Cc1coc2c1CC1OC1(C)CCC1OC1(C)C2` (stereo unspecified), for which the TGI in assay [1], in assay [8], in [9], in assay [2], in [3] and in [4] was more than 100 µM in each case. Further, the TGI in assay [10], in assay [5] and in assay [7] was more than 100 µM in each case.
With `C/C(=C1/N=C(c2ccccc2)OC1=O)c1ccc(C)cc1`, the TGI in assay [1], in assay [8], in assay [9], in assay [2], in assay [3] and in [4] was more than 100 µM each time. The TGI in assay [5], in [6] and in assay [7] was more than 100 µM each time.
`O=C(c1ccco1)c1ccccc1C(=O)c1ccco1`: the TGI in assay [1], in assay [8], in assay [2], in [3], in [4] and in assay [5] was more than 100 µM in each case. Further, the TGI in [6] and in assay [7] was more than 100 µM in each case.
As for `Cc1ccc(/C=N/NS(=O)(=O)c2ccccc2)cc1`, the TGI in assay [1], in assay [8], in [2], in assay [3], in [4] and in assay [5] was more than 100 µM in each case. Moreover, the TGI in assay [6] and in assay [7] was more than 100 µM in each case.
As for `COc1cc(-c2nc3ccccc3[nH]2)ccc1OCC(=O)N=Nc1c(O)[nH]c2ccc(Cl)cc12`, the GI50 in [1] was 2.18 µM; in [8] it was 0.4 µM; in [2] it was 1.52 µM; in assay [3] it was 1.73 µM; in assay [4], 1.15 µM; in [10], more than 100 µM. Moreover, the values for the GI50 in assay [5], in assay [6] and in assay [7] were 1.97 µM, 1.8 µM and 1.76 µM, respectively. For the same compound, the TGI in assay [1] is 5.42 µM; in assay [8] it was 1.53 µM; in [2] it was 3.05 µM; in assay [3], 3.48 µM; in [4], 2.84 µM; in assay [10] it was more than 100 µM. The figures for the TGI in assay [5], in assay [6] and in assay [7] were 4.82 µM, 3.48 µM and 3.34 µM, respectively.
In the case of `CCCCNC(=O)OCC(COc1ccccc1OC)OC(=O)NCCCC` (stereo unspecified), the TGI in assay [1], in assay [8], in [2], in [3], in assay [4] and in assay [6] was more than 100 µM each time. The compound also registered a TGI in [7] of more than 100 µM.
For `CC1(C(=O)NCCN(CCNC(=O)C2(C)CC3(C)CC(C)(C2)C(=O)NC3=O)CCNC(=O)C2(C)CC3(C)CC(C)(C2)C(=O)NC3=O)CC2(C)CC(C)(C1)C(=O)NC2=O` (stereo unspecified), the TGI in assay [1], in assay [8], in assay [2], in assay [3], in [4] and in assay [6] was more than 100 µM throughout. In assay [7], this compound came in with a TGI of more than 100 µM.
In the case of `CN(C)C(=S)/N=c1\ssc(=S)n1-c1ccccc1`, the TGI in [1] came out at 57.7 µM; in assay [8], 27.2 µM; in assay [2], 39.1 µM; in [3] it was 77.5 µM; in assay [4], 33.1 µM; in assay [5], 29.9 µM. Also, the TGI in assay [6] is 33 µM; in assay [7], 21.6 µM.
As to `NC(=S)N/N=C1\C(=O)N(CCc2ccccc2)C(=O)C1C(=O)NCCc1ccccc1` (stereo unspecified), the TGI in assay [1], in [8], in [2], in assay [3], in assay [4] and in [5] was more than 100 µM each time. Besides, the TGI in assay [6] and in [7] was more than 100 µM each time.
Take `COC1=C(C)C(=O)C2=C(C1=O)C(CO)N1C(C#N)C3CC4C(C1C2N1CCOC41)N3C` (stereo unspecified): the GI50 was 0.00217 µM and 0.0216 µM in [2]; 0.00173 µM and < 0.0134 µM in assay [3]; 0.00201 µM and 0.0178 µM in assay [6]. Further, the TGI is 0.45 µM and 0.182 µM in [10]; 1.09 µM and 0.587 µM and 1.98 µM in assay [5]; 0.0451 µM and 0.038 µM and 0.0364 µM in assay [7].
Take `NCCn1ccc(NC(c2ccccc2)(c2ccccc2)c2ccccc2)nc1=O`: the TGI is more than 100 µM in assay [1]; 35.5 µM in [8]; more than 100 µM in assay [2]; 37.9 µM in assay [4]; more than 100 µM in assay [5]; 21.3 µM in assay [6]. Further, the TGI in assay [7] stood at 33.4 µM.
Regarding `CSc1c(S(C)=O)[nH]c2cc(Br)cc(Br)c12` (stereo unspecified), the TGI is 62.1 µM in assay [1]; 32.7 µM in assay [8]; more than 100 µM in assay [2]; 50.4 µM in assay [3]; 35.1 µM in assay [4]; 33.6 µM in [6].
Regarding `COc1cc[c]([Sb]([Br])([CH]=C(C)C)([CH]=C(C)C)[CH]=C(C)C)cc1`, the GI50 in assay [1] is 28.8 µM; in [8], 4.78 µM; in assay [2], 3.06 µM; in assay [3], 4.72 µM; in assay [4] it was 6.61 µM; in [6] it was 8.8 µM. The GI50 in assay [7] was 5.79 µM. Further, the TGI in assay [1] is more than 100 µM; in assay [8], 73.7 µM; in assay [2], 66.1 µM; in [3] it was 34.6 µM; in assay [4], 54.5 µM; in assay [6], 59.1 µM. The compound further gave a TGI in assay [7] of 51.3 µM.
Take `O=C1NC2(CCCC2)/C(=N\O)C12CCCC2`: the TGI in assay [1], in [8], in [2], in assay [3], in assay [4] and in assay [5] was more than 100 µM each time. Also, the TGI in assay [6] and in assay [7] was more than 100 µM each time.
Regarding `Clc1ccccc1C1N2CCCCC2[C@@H]2c3[nH]c4ccccc4c3CCN12` (stereo partly specified), the TGI in assay [1] was 30.3 µM; in [8], 32.6 µM; in [2] it was more than 100 µM; in assay [3], 45.6 µM; in assay [4], 35.6 µM; in [5] it was 52.7 µM. Also, the TGI in [6] was 40.2 µM; in assay [7], 34.1 µM.
Turning to `NC1=NN(c2ccccc2)C(=O)C1/C(=N\NC(=O)c1cc2ccccc2cc1O)C(=O)Nc1nc([N+](=O)[O-])cs1` (stereo unspecified), the TGI is more than 100 µM in [1]; more than 87.9 µM in assay [8]; 94.4 µM in assay [2]; 56.3 µM in assay [3]; 46.1 µM in assay [4]; more than 100 µM in [5]. The TGI was 7.27 µM in [6] and more than 86.6 µM in assay [7].
Regarding `COc1ccc2nc3ccccc3c(NCCCCCN(CCCl)CCCl)c2c1`, the TGI turned out to be 0.986 µM in assay [3], 0.192 µM in assay [4] and 1.35 µM in assay [5].
